Data reported in patent US6140368A, “Naphthols useful in antiviral methods” (The Regents of the University of California, priority 1998, dated 2000).

Target: HIV reverse transcriptase (Human immunodeficiency virus type 1 group M subtype B, UniProt P03366)
Test: Reverse transcriptase scintillation proximity assay (Example 4, Table 2)
Assay type: biochemical
Details: 10 μM inhibitor; relative to dimethyl sulfoxide = 100%; 3 min, 10 µM
Method: Reverse transcriptase ("RT") activity is measured using a scintillation proximity assay kit available from Amersham Life Sciences, Inc., which uses a biotin/streptavidin bead capture system. RNA-dependent polymerase activity is measured using purified […] and a synthetic 17mer/50mer RNA-DNA template-primer containing biotin at the 5' end of the DNA. The template-primer, buffer, dNTP, and inhibitor are incubated for 10 minutes at 37° C. before the RT is added. The final 100 μl reaction mixture contains: 39 nm of template primer, buffer (40 mM tris HCl at pH 8.0, 10 mM MgCl2, 60 mM KCl, 10 mM dithiothreitol); 75 nM of each dNTP except dTTP; 25 nM dTTP and 35 nM tritium labeled d*TTP; 10 μM inhibitor; and 1.0-2.0 μg of RT. After three minute incubation, the reaction is quenched with 40 μl of 0.56M EDTA. Then 10 μl of streptavidin SPA beads (in suspension) are added and incubated at 37° C. for 10 minutes. Finally, 850 μl of a buffer containing 10 mM Tris HCl pH 7.4 and 0.15M NaCl is added. The signal is produced by biotinylated polymers incorporating d*TTP binding to the streptavidin beads which stimulate the scintillant. The amount of d*TTP incorporated in the polymer is measured with a scintillation counter.
Compounds showing good inhibition will give a low number of counts/min (cpm). This number is related to a standard, dimethyl sulfoxide, which is given an arbitrary 100% relative activity. All cpm data in a single run are given a percent of this standard.

Q: For `CCOC(=O)c1ccc(NC(=O)Nc2ccc3c(O)cc(S(=O)(=O)O)cc3c2)cc1` [Compound 28], which “% RT activity remaining at 10 μM” value is on record?
A: The value was 100%.

Q: For `O=C(O)c1ccc(N=Nc2c(S(=O)(=O)O)cc3cc(NC(=O)c4cccc(C(=O)Nc5ccc6c(O)c(N=Nc7ccc(C(=O)O)cc7)c(S(=O)(=O)O)cc6c5)n4)ccc3c2O)cc1` [Compound 127], which “% RT activity remaining at 10 μM” value is on record?
A: The value was “.14%”.

Same assay, conditions: 0.05 h, 10 μM inhibitor; relative to dimethyl sulfoxide = 100%; read-out: % RT activity remaining at 10 μM

Q: How did the remaining activity at 10 µM turn out when `O=C(O)CCCc1ccc(N=Nc2c(S(=O)(=O)O)cc3cc(NC(=O)c4ccc(C(=O)Nc5ccc6c(O)c(N=Nc7ccc(CCCC(=O)O)cc7)c(S(=O)(=O)O)cc6c5)cc4)ccc3c2O)cc1` [Compound 165] was run?
A: Its remaining activity at 10 µM is 3.7%.

Q: For `CCOC(=O)c1ccc(N=Nc2c(S(=O)(=O)O)cc3ccc(NC(=O)Nc4ccc5cc(S(=O)(=O)O)c(N=Nc6ccc(C(=O)OCC)cc6)c(O)c5c4)cc3c2O)cc1` [Compound 84], which remaining activity at 10 µM is on record?
A: The remaining activity at 10 µM was 1.7%.

Q: Which remaining activity at 10 µM does the source give for `O=C(Nc1ccc2cc(S(=O)(=O)O)cc(S(=O)(=O)O)c2c1)Nc1ccc2cc(S(=O)(=O)O)cc(S(=O)(=O)O)c2c1` [Compound 78] here?
A: The remaining activity at 10 µM was 80%.

Q: Which remaining activity at 10 µM does the source give for `COc1cc(N=Nc2c(S(=O)(=O)O)cc3cc(NC(=O)c4ccc(C(=O)Nc5ccc6c(O)c(N=Nc7cc(OC)c(OC)c(OC)c7)c(S(=O)(=O)O)cc6c5)cc4)ccc3c2O)cc(OC)c1OC` [Compound 175] here?
A: The remaining activity at 10 µM was 62%.

Q: Which remaining activity at 10 µM does the source give for `O=C(Nc1ccc2c(O)cc(S(=O)(=O)O)cc2c1)c1ccc(C(=O)Nc2ccc3c(O)cc(S(=O)(=O)O)cc3c2)cc1` [Compound 160] here?
A: The remaining activity at 10 µM was 74%.

Q: For `O=C(Nc1ccc2c(O)cc(S(=O)(=O)O)cc2c1)Nc1cccc2ccccc12` [Compound 11], which remaining activity at 10 µM is on record?
A: Its remaining activity at 10 µM is 90%.

Q: With `O=C(O)CCc1ccc(N=Nc2c(S(=O)(=O)O)cc3cc(Nc4c(Nc5ccc6c(O)c(N=Nc7ccc(CCC(=O)O)cc7)c(S(=O)(=O)O)cc6c5)c(=O)c4=O)ccc3c2O)cc1` [Compound 188] as the compound, how does the remaining activity at 10 µM read?
A: The remaining activity at 10 µM was 0.3%.

Q: With `O=C(O)CCCc1ccc(N=Nc2c(S(=O)(=O)O)cc3cc(Nc4c(Nc5ccc6c(O)c(N=Nc7ccc(CCCC(=O)O)cc7)c(S(=O)(=O)O)cc6c5)c(=O)c4=O)ccc3c2O)cc1` [Compound 189] as the compound, how does the remaining activity at 10 µM read?
A: The remaining activity at 10 µM was 1%.

Q: How did the remaining activity at 10 µM turn out when `O=C(Nc1ccc2c(O)c(N=Nc3ccc(Cl)cc3)c(S(=O)(=O)O)cc2c1)c1ccc(C(=O)Nc2ccc3c(O)c(N=Nc4ccc(Cl)cc4)c(S(=O)(=O)O)cc3c2)cc1` [Compound 181] was run?
A: Its remaining activity at 10 µM is 43%.

Q: With `O=C(O)Cc1ccc(N=Nc2c(S(=O)(=O)O)cc3cc(Nc4c(Nc5ccc6c(O)c(N=Nc7ccc(CC(=O)O)cc7)c(S(=O)(=O)O)cc6c5)c(=O)c4=O)ccc3c2O)cc1` [Compound 187] as the compound, how does the remaining activity at 10 µM read?
A: Its remaining activity at 10 µM is 0.3%.

Q: `O=C(Nc1ccc2c(O)cc(S(=O)(=O)O)cc2c1)Nc1cccc2ccc(S(=O)(=O)O)cc12` [Compound 10] was tested. Which remaining activity at 10 µM did it give?
A: Its remaining activity at 10 µM is 88%.

Q: `CC(NC(=O)Nc1ccc2c(O)cc(S(=O)(=O)O)cc2c1)c1ccc(F)cc1` (stereo not drawn) [Compound 12] was tested. Which remaining activity at 10 µM did it give?
A: The remaining activity at 10 µM was 88%.

Q: `O=C(Nc1ccc2c(O)c(N=Nc3cc(F)c(F)c(C(=O)O)c3F)c(S(=O)(=O)O)cc2c1)c1ccc(C(=O)Nc2ccc3c(O)c(N=Nc4cc(F)c(F)c(C(=O)O)c4F)c(S(=O)(=O)O)cc3c2)cc1` [Compound 171] was tested. Which remaining activity at 10 µM did it give?
A: The remaining activity at 10 µM was 0.15%.

Q: `Nc1cccc2c(NC(=O)Nc3ccc4c(O)cc(S(=O)(=O)O)cc4c3)cccc12` [Compound 19] was tested. Which remaining activity at 10 µM did it give?
A: Its remaining activity at 10 µM is 80%.

Q: With `O=C(Nc1ccc2c(O)cc(S(=O)(=O)O)cc2c1)c1cc(=O)cc(C(=O)Nc2ccc3c(O)cc(S(=O)(=O)O)cc3c2)o1` [Compound 131] as the compound, how does the remaining activity at 10 µM read?
A: Its remaining activity at 10 µM is 48%.

Q: Which remaining activity at 10 µM does the source give for `O=c1c(Nc2ccc3cc(S(=O)(=O)O)cc(O)c3c2)c(Nc2ccc3cc(S(=O)(=O)O)cc(O)c3c2)c1=O` [Compound 198] here?
A: The remaining activity at 10 µM was 37%.

Q: For `O=C(Nc1ccc2ccccc2c1)Nc1ccc2c(O)cc(S(=O)(=O)O)cc2c1` [Compound 13], which remaining activity at 10 µM is on record?
A: Its remaining activity at 10 µM is 82%.

Q: `O=C(O)/C=C/c1ccc(N=Nc2c(S(=O)(=O)O)cc3cc(NC(=O)c4cc(=O)cc(C(=O)Nc5ccc6c(O)c(N=Nc7ccc(/C=C/C(=O)O)cc7)c(S(=O)(=O)O)cc6c5)o4)ccc3c2O)cc1` [Compound 137] was tested. Which remaining activity at 10 µM did it give?
A: The remaining activity at 10 µM was 0.53%.

Q: `COc1cc(C(=O)O)ccc1N=Nc1c(S(=O)(=O)O)cc2cc(Nc3c(Nc4ccc5c(O)c(N=Nc6ccc(C(=O)O)cc6OC)c(S(=O)(=O)O)cc5c4)c(=O)c3=O)ccc2c1O` [Compound 193] was tested. Which remaining activity at 10 µM did it give?
A: Its remaining activity at 10 µM is 0.4%.

Q: `O=C(O)c1cc(N=Nc2c(S(=O)(=O)O)cc3cc(NC(=O)c4ccc(C(=O)Nc5ccc6c(O)c(N=Nc7cc(C(=O)O)cc(C(=O)O)c7)c(S(=O)(=O)O)cc6c5)cc4)ccc3c2O)cc(C(=O)O)c1` [Compound 178] was tested. Which remaining activity at 10 µM did it give?
A: Its remaining activity at 10 µM is 91%.

Q: Which remaining activity at 10 µM does the source give for `O=C(Nc1ccc2c(S(=O)(=O)O)cccc2c1)Nc1ccc2c(S(=O)(=O)O)cccc2c1` [Compound 81] here?
A: The remaining activity at 10 µM was 78%.

Q: How did the remaining activity at 10 µM turn out when `O=C(Nc1ccc2c(O)c(N=Nc3cc(F)c(F)c(C(=O)O)c3F)c(S(=O)(=O)O)cc2c1)c1cccc(C(=O)Nc2ccc3c(O)c(N=Nc4cc(F)c(F)c(C(=O)O)c4F)c(S(=O)(=O)O)cc3c2)n1` [Compound 126] was run?
A: The remaining activity at 10 µM was 0.16%.

Q: Which remaining activity at 10 µM does the source give for `O=C(O)Cc1ccc(N=Nc2c(S(=O)(=O)O)cc3cc(NC(=O)c4ccc(C(=O)Nc5ccc6c(O)c(N=Nc7ccc(CC(=O)O)cc7)c(S(=O)(=O)O)cc6c5)cc4)ccc3c2O)cc1` [Compound 163] here?
A: The remaining activity at 10 µM was 0.1%.

Q: Which remaining activity at 10 µM does the source give for `O=C(Nc1ccc2c(O)cc(S(=O)(=O)O)cc2c1)c1cc(O)cc(C(=O)Nc2ccc3c(O)cc(S(=O)(=O)O)cc3c2)n1` [Compound 145] here?
A: The remaining activity at 10 µM was 47%.

Q: Which remaining activity at 10 µM does the source give for `O=C(O)CC(C(=O)O)c1ccc(N=Nc2c(S(=O)(=O)O)cc3cc(Nc4c(Nc5ccc6c(O)c(N=Nc7ccc(C(CC(=O)O)C(=O)O)cc7)c(S(=O)(=O)O)cc6c5)c(=O)c4=O)ccc3c2O)cc1` (stereo not drawn) [Compound 191] here?
A: Its remaining activity at 10 µM is 0.3%.

Q: With `O=C(O)c1ccc(N=Nc2c(S(=O)(=O)O)cc3cc(NC(=O)c4cc(=O)cc(C(=O)Nc5ccc6c(O)c(N=Nc7ccc(C(=O)O)cc7)c(S(=O)(=O)O)cc6c5)o4)ccc3c2O)cc1` [Compound 132] as the compound, how does the remaining activity at 10 µM read?
A: The remaining activity at 10 µM was 0.19%.

Q: How did the remaining activity at 10 µM turn out when `O=C(O)c1ccc(C(=O)O)c(N=Nc2c(S(=O)(=O)O)cc3cc(NC(=O)c4ccc(C(=O)Nc5ccc6c(O)c(N=Nc7cc(C(=O)O)ccc7C(=O)O)c(S(=O)(=O)O)cc6c5)cc4)ccc3c2O)c1` [Compound 173] was run?
A: The remaining activity at 10 µM was 27%.

Q: How did the remaining activity at 10 µM turn out when `COc1cc(N=Nc2c(S(=O)(=O)O)cc3cc(NC(=O)c4cc(O)cc(C(=O)Nc5ccc6c(O)c(N=Nc7cc(OC)c(OC)c(OC)c7C(=O)O)c(S(=O)(=O)O)cc6c5)n4)ccc3c2O)c(C(=O)O)c(OC)c1OC` [Compound 156] was run?
A: The remaining activity at 10 µM was 15%.

Q: Which remaining activity at 10 µM does the source give for `O=C(O)/C=C/c1ccc(N=Nc2c(S(=O)(=O)O)cc3ccc(Nc4c(Nc5ccc6cc(S(=O)(=O)O)c(N=Nc7ccc(/C=C/C(=O)O)cc7)c(O)c6c5)c(=O)c4=O)cc3c2O)cc1` [Compound 199] here?
A: Its remaining activity at 10 µM is 1.2%.

Q: `O=C(Nc1ccc(S(=O)(=O)O)c2ccccc12)Nc1ccc(S(=O)(=O)O)c2ccccc12` [Compound 79] was tested. Which remaining activity at 10 µM did it give?
A: Its remaining activity at 10 µM is 78%.

Q: Which remaining activity at 10 µM does the source give for `COC(=O)c1cc(NC(=O)Nc2ccc3c4c(cccc24)C(=O)OC3=O)cc(C(=O)OC)c1` [Compound 83] here?
A: The remaining activity at 10 µM was 77%.

Same assay, conditions: 0.05 h, read-out: % RT activity remaining at 10 μM

Q: With `O=C(NC(=O)Oc1ccccc1)Nc1ccc2cc(S(=O)(=O)O)cc(O)c2c1` [Compound 30] as the compound, how does the remaining activity at 10 µM read?
A: Its remaining activity at 10 µM is 87%.

Same assay, conditions: read-out: IC50 (RT activity)

Q: With `O=C(O)/C=C/c1ccc(N=Nc2c(S(=O)(=O)O)cc3ccc(NC(=O)Nc4ccc5cc(S(=O)(=O)O)c(N=Nc6ccc(/C=C/C(=O)O)cc6)c(O)c5c4)cc3c2O)cc1` [Compound 86] as the compound, how does the IC50 read?
A: The IC50 was 1.2 µM.

Q: `O=c1c(Nc2ccc3c(O)cc(S(=O)(=O)O)cc3c2)c(Nc2ccc3c(O)cc(S(=O)(=O)O)cc3c2)c1=O` [Compound 184] was tested. Which IC50 did it give?
A: Its IC50 is 1 µM.
